Broadly, the EC50 is the concentration giving half of the maximal effect.

Where two headings read alike, the source gives them in different places. Where only a bound is given, the exact number is not on record here.

Consider 26 compounds from patent US20160045505A1, “COMPOUNDS AND COMPOSITIONS FOR THE TREATMENT OF PARASITIC DISEASES” (NOVARTIS AG, priority 2013, published 2016).

Test [1] relates to Leishmania donovani axenic amastigote parasites. The experiment in a line: Leishmania donovani axenic amastigote proliferation assay (Cell TiterGlo luminescence, 2 day incubation). The class given is cell-based. As to conditions: Leishmania donovani. In general terms: Cellular ATP, detected with luciferase, serves as a proxy for viable cell number.
The test system of test [2] is L. donovani HU3 strain in mouse peritoneal macrophages. Put plainly: Assay for proliferation of Leishmania parasites in infected mouse peritoneal macrophages (SybrGreen staining, high-content imaging, 5 days). Format: cell-based, Leishmania donovani. The settings on record: Leishmania donovani, Peritoneal macrophage.
The subject of test [3] is Trypanosoma cruzi amastigotes (Tulahuen strain expressing Lac-Z) cultured in 3T3 fibroblast cells. Put plainly: microbe, parasite or virus in culture. Format: cell-based. As to conditions: Trypanosoma cruzi, TULAHUEN
The mark [4] stands for this setting: axenic amastigotes, inhibition of proliferation, read-out: L. donovani amastigotes EC50.
[5] abbreviates: L. donovani in mouse peritoneal macrophages, inhibition of proliferation, read-out: L. donovani Macrophage EC50.
Where [6] appears, read: Fibroblast, T. cruzi amastigotes in 3T3 fibroblast cells, inhibition of proliferation, read-out: T cruzi EC50.
Where [7] appears, read: L. donovani axenic amastigotes, read-out: L. donovani amastigotes EC50.
[8] abbreviates: L. donovani in mouse peritoneal macrophages, read-out: L. donovani Macrophage EC50.
[9] abbreviates: Fibroblast, T. cruzi amastigotes in 3T3 fibroblast cells, read-out: T cruzi EC50.

With `CC(C)OC(=O)Nc1cnc2nc(-c3cc(NC(=O)N4CC5(COC5)C4)ccc3F)cn2c1` [Compound 294], the EC50 in test [1] (setting [4]) is above 25 µM; in test [2] (setting [5]), above 44.9 µM; in test [3] (setting [6]), above 20 µM.
Turning to `Cc1nc(C)c(C(=O)Nc2ccc(F)c(-c3cn4cc(C5=CCOCC5)cnc4n3)c2)o1` [Compound 334], the EC50 in test [1] (setting [4]) came out at 0.052 µM; in test [2] (setting [5]) it was 0.085 µM; in test [3] (setting [6]), 0.064 µM.
On to `COCCOC(=O)Nc1ccc(F)c(-c2cn3cc(NC(=O)OC(C)C)cnc3n2)c1` [Compound 303], for which the EC50 in test [1] (setting [4]) was above 20.3 µM; in test [2] (setting [5]), above 50 µM; in test [3] (setting [6]) it was 17.7 µM.
On to `Cc1nc(C)c(C(=O)N(C)c2ccc(F)c(-c3cn4cc(NC(C)C)cnc4n3)c2)o1` [Compound 557], for which the EC50 in test [1] (setting [7]) was above 25 µM; in test [2] (setting [8]) it was above 50 µM; in test [3] (setting [9]), above 20 µM.
Turning to `C=C(c1ccccc1)c1cnc2nc(-c3cc(NC(=O)c4oc(C)nc4C)ccc3F)cn2c1` [Compound 346], the EC50 in test [1] (setting [4]) stood at 0.355 µM; in test [2] (setting [5]) it was 0.49 µM; in test [3] (setting [6]), 0.159 µM.
In the case of `COCCNc1cnc2nc(-c3cc(NC(=O)N4CCCC4)ccc3Cl)cn2c1` [Compound 496], the results for the EC50 in test [1] (setting [7]), in test [2] (setting [8]) and in test [3] (setting [9]) were 2.06 µM, 8.85 µM and 2.12 µM, respectively.
Regarding `Cc1nc(C)c(C(=O)Nc2ccc(F)c(-c3cn4cc(N5CCC5)cnc4n3)c2)o1` [Compound 559], the EC50 was above 25 µM in test [1] (setting [7]), above 50 µM in test [2] (setting [8]) and above 20 µM in test [3] (setting [9]).
As for `C[Si](C)(C)CCOCn1cnc(-c2cnc3nc(-c4cc(NC(=O)N5CCCC5)ccc4Cl)cn3c2)c1` [Compound 344], the half-maximal effective concentration (EC50) in test [1] (setting [4]) is 0.073 µM; in test [2] (setting [5]) it was 0.158 µM; in test [3] (setting [6]), 0.051 µM.
`O=C(Nc1ccc(F)c(-c2cn3cc(OCC4CC4)cnc3n2)c1)N1CCCC1` [Compound 562, N-(3-(6-(cyclopropylmethoxy)imidazo[1,2-a]pyrimidin-2-yl)-4-fluorophenyl)pyrrolidine-1-carboxamide]: the EC50 came out at 0.16 µM in test [1] (setting [7]), 0.245 µM in test [2] (setting [8]) and 0.046 µM in test [3] (setting [9]).
As to `O=C(Nc1ccc(F)c(-c2cn3cc(Nc4ncccc4C(F)(F)F)cnc3n2)c1)N1CCCC1` [Compound 191], the EC50 in test [1] (setting [4]) turned out to be 0.028 µM; in test [2] (setting [5]) it was 0.143 µM; in test [3] (setting [6]), 0.033 µM.
Taken in the same sequence, the figures for `O=C(Nc1ccc(F)c(-c2cn3cc(-c4ccccc4)cnc3n2)c1)N1CCC1` [Compound 321] were 0.008 µM, 0.015 µM and 0.005 µM.
Taken in the same sequence, the figures for `Cc1cc(C(=O)Nc2ccc(F)c(-c3cn4cc(NC(=O)OC(C)C)cnc4n3)c2)n[nH]1` [Compound 77] were 9.23 µM, above 50 µM and above 20 µM.
As to `Cc1nc(C)c(C(=O)Nc2ccc(F)c(-c3cn4cc(-c5ccccn5)cnc4n3)c2)o1` [Compound 394], the concentration giving a half-maximal response (EC50) in test [1] (setting [7]) was 0.08 µM; in test [2] (setting [8]) it was 0.107 µM; in test [3] (setting [9]) it was above 20 µM.
As for `Cc1nc(C)c(C(=O)Nc2ccc(F)c(-c3cn4cc(NC(=O)c5ccc(F)cn5)cnc4n3)c2)o1` [Compound 187], the EC50 in test [1] (setting [4]) was 0.031 µM; in test [2] (setting [5]), above 50 µM; in test [3] (setting [6]) it was 0.142 µM.
Taken in the same sequence, the figures for `CC(C)OC(=O)Nc1cnc2nc(-c3cc(NC(=O)N4CCCC4(C)C)ccc3Cl)cn2c1` [Compound 282] were above 25 µM, 10.1 µM and 7.35 µM.
Taken in the same sequence, the figures for `O=C(Nc1ccc(F)c(-c2cn3cc(-c4ccc(CCN5CCOCC5)cc4)cnc3n2)c1)N1CCCC1` [Compound 352] were 0.215 µM, 0.061 µM and 0.018 µM.
`Cc1nc(C)c(C(=O)Nc2ccc(F)c(-c3cn4cc(C5=CCN(C)CC5)cnc4n3)c2)o1` [Compound 361]: the EC50 in test [1] (setting [4]) is 7.93 µM; in test [2] (setting [5]), 0.993 µM; in test [3] (setting [6]), 1.04 µM.
With `Cc1nc(C)c(C(=O)Nc2ccc(F)c(-c3cn4cc(-c5cccc(N6CCNCC6)n5)cnc4n3)c2)o1` [Compound 572], the EC50 in test [1] (setting [7]) came to 1.94 µM; in test [2] (setting [8]), 2.36 µM; in test [3] (setting [9]) it was 0.394 µM.
On to `CC(C)OC(=O)Nc1cnc2nc(-c3cc(NC(=O)N4CCCC4)ccc3Cl)cn2c1` [Compound 2, propan-2-yl N-(2-{2-chloro-5-[(pyrrolidin-1-yl)carbonylamino]phenyl}imidazo[1,2-a]pyrimidin-6-yl)carbamate], for which the values for the EC50 in test [1] (setting [4]), in test [2] (setting [5]) and in test [3] (setting [6]) were 0.096 µM, 0.268 µM and 0.243 µM, respectively.
Taken in the same sequence, the figures for `CC(C)OC(=O)Nc1cnc2nc(-c3cc(NC(=O)N4CCC4)ccc3Cl)cn2c1` [Compound 278] were 0.177 µM, 1.08 µM and 1.09 µM.
As to `Cc1nc(C)c(C(=O)Nc2ccc(F)c(-c3cn4cc(-c5ccccc5)cnc4n3)c2)o1` [Compound 333], the EC50 in test [1] (setting [4]) turned out to be 0.088 µM; in test [2] (setting [5]) it was 0.087 µM; in test [3] (setting [6]) it was 0.016 µM.
Turning to `CC(C)OC(=O)Nc1cnc2nc(-c3cc(NC(=O)c4ccc(F)o4)ccc3Cl)cn2c1` [Compound 1, Propan-2-yl N-{2-[2-chloro-5-(5-fluorofuran-2-amido)phenyl]imidazo[1,2-a]pyrimidin-6-yl}carbamate], the EC50 is 0.088 µM in test [1] (setting [4]); 0.243 µM in test [2] (setting [5]); 0.03 µM in test [3] (setting [6]); 0.03 µM in test [3] (NIH3T3, 144 h, T. cruzi amastigotes in 3T3 cells, 6 day incubation, read-out: EC50).
As to `CC(=O)Nc1cnc2nc(-c3cc(NC(=O)c4oc(C)nc4C)ccc3F)cn2c1` [Compound 525, N-(3-(6-acetamidoimidazo[1,2-a]pyrimidin-2-yl)-4-fluorophenyl)-2,4-dimethyloxazole-5-carboxamide], the EC50 is 5.35 µM in test [1] (read-out: L. donovani amastigotes EC50 (μM)); 21.1 µM in test [2] (read-out: L. donovani Macrophage EC50 (μM)); above 20 µM in test [3] (Fibroblast, read-out: T cruzi EC50 (μM)).
As to `CC(C)OC(=O)Nc1cnc2nc(-c3cc(NC(=O)N4CCC(C)(C(=O)O)C4)ccc3Cl)cn2c1` (stereo not shown) [Compound 280], the EC50 was above 25 µM in test [1] (setting [4]), above 42.1 µM in test [2] (setting [5]) and above 20 µM in test [3] (setting [6]).
On to `Cc1nc(C)c(C(=O)Nc2ccc(F)c(-c3cn4cc(N5CCOCC5)cnc4n3)c2)o1` [Compound 490], for which the EC50 is 0.134 µM in test [1] (setting [7]), 0.383 µM in test [2] (setting [8]) and 0.157 µM in test [3] (setting [9]).
For `CN(CC(F)(F)F)C(=O)Nc1ccc(F)c(-c2cn3cc(C4=CCOCC4)cnc3n2)c1` [Compound 326], the EC50 in test [1] (setting [4]) turned out to be 0.158 µM; in test [2] (setting [5]), 0.496 µM; in test [3] (setting [6]), 0.123 µM.
